Where a name gives a salt, the structure may show the parent alone.

A word on the melting point: it is the temperature of the solid-liquid transition. Turning to `COCC(=O)C(F)(F)Cc1ccc(OCCN(C)CC(c2ccc(Cl)cc2)c2ccc(Cl)cc2)cc1` (as salt: hydrochloride) [Example 9, 4-[4-[2-[N-[2-Bis-(4-chlorophenyl)ethyl]-N-methylamino]ethoxy]phenyl]-2,2-difluoro-1-methoxy-2-butanone], the melting point was in the range of 53 to 62 °C.

(Values after patent publication US6924391B2, “Alpha-amino,-thio,-oxo substituted ketones as phospholipase inhibitors” (Bristol-Myers Squibb Company, priority 2000, dated 2005).)
